Experimental data: ChEMBL document CHEMBL1649134, “Occurrence of efflux mechanism and cephalosporinase variant in a population of Enterobacter aerogenes and Klebsiella pneumoniae isolates producing extended-spectrum beta-lactamases” (2009)

Columns and labels:
Type in all cases: functional
Klebsiella aerogenes [1] = experiment: Antimicrobial activity against multidrug resistant Enterobacter aerogenes ATCC 15038 by broth dilution method in presence of 26.3 mg/L efflux pump inhibitor phenylalanine-arginine-beta-naphthylamide
Klebsiella pneumoniae [2] = experiment: Antimicrobial activity against multidrug resistant Klebsiella pneumoniae isolate 7 by broth dilution method in presence of 26.3 mg/L efflux pump inhibitor phenylalanine-arginine-beta-naphthylamide
Klebsiella pneumoniae [3] = experiment: Antimicrobial activity against multidrug resistant Klebsiella pneumoniae isolate 12 by broth dilution method
Klebsiella pneumoniae [4] = experiment: Antimicrobial activity against multidrug resistant Klebsiella pneumoniae isolate 14 by broth dilution method
Klebsiella aerogenes [5] = experiment: Antimicrobial activity against multidrug resistant Enterobacter aerogenes isolate 13 by broth dilution method
Klebsiella aerogenes [6] = experiment: Antimicrobial activity against multidrug resistant Enterobacter aerogenes isolate 19 by broth dilution method in presence of 26.3 mg/L efflux pump inhibitor phenylalanine-arginine-beta-naphthylamide
Klebsiella aerogenes [7] = experiment: Antimicrobial activity against multidrug resistant Enterobacter aerogenes isolate 19 by broth dilution method
Klebsiella aerogenes [8] = experiment: Antimicrobial activity against multidrug resistant Enterobacter aerogenes isolate 22 by broth dilution method in presence of 26.3 mg/L efflux pump inhibitor phenylalanine-arginine-beta-naphthylamide
Klebsiella aerogenes [9] = experiment: Antimicrobial activity against multidrug resistant Enterobacter aerogenes isolate 12 by broth dilution method
Klebsiella aerogenes [10] = experiment: Antimicrobial activity against multidrug resistant Enterobacter aerogenes isolate 17 by broth dilution method in presence of 26.3 mg/L efflux pump inhibitor phenylalanine-arginine-beta-naphthylamide
Klebsiella aerogenes [11] = experiment: Antimicrobial activity against multidrug resistant Enterobacter aerogenes isolate 23 by broth dilution method in presence of 26.3 mg/L efflux pump inhibitor phenylalanine-arginine-beta-naphthylamide
Klebsiella pneumoniae [12] = experiment: Antimicrobial activity against multidrug resistant Klebsiella pneumoniae isolate 3 by broth dilution method
Klebsiella aerogenes [13] = experiment: Antimicrobial activity against multidrug resistant Enterobacter aerogenes isolate 3 by broth dilution method
Klebsiella aerogenes [14] = experiment: Antimicrobial activity against multidrug resistant Enterobacter aerogenes isolate 20 by broth dilution method
Klebsiella aerogenes [15] = experiment: Antimicrobial activity against multidrug resistant Enterobacter aerogenes isolate 8 by broth dilution method
Klebsiella aerogenes [16] = experiment: Antimicrobial activity against multidrug resistant Enterobacter aerogenes isolate 24 by broth dilution method
Klebsiella aerogenes [17] = experiment: Antimicrobial activity against multidrug resistant Enterobacter aerogenes isolate 15 by broth dilution method
Klebsiella aerogenes [18] = experiment: Antimicrobial activity against multidrug resistant Enterobacter aerogenes isolate 14 by broth dilution method in presence of 26.3 mg/L efflux pump inhibitor phenylalanine-arginine-beta-naphthylamide
Klebsiella pneumoniae [19] = experiment: Antimicrobial activity against multidrug resistant Klebsiella pneumoniae isolate 11 by broth dilution method in presence of 26.3 mg/L efflux pump inhibitor phenylalanine-arginine-beta-naphthylamide
Klebsiella pneumoniae [20] = experiment: Antimicrobial activity against multidrug resistant Klebsiella pneumoniae isolate 12 by broth dilution method in presence of 26.3 mg/L efflux pump inhibitor phenylalanine-arginine-beta-naphthylamide
Klebsiella aerogenes [21] = experiment: Antimicrobial activity against multidrug resistant Enterobacter aerogenes ATCC 15038 by broth dilution method
Klebsiella aerogenes [22] = experiment: Antimicrobial activity against multidrug resistant Enterobacter aerogenes isolate 27 by broth dilution method
Klebsiella aerogenes [23] = experiment: Antimicrobial activity against multidrug resistant Enterobacter aerogenes isolate 5 by broth dilution method
Klebsiella aerogenes [24] = experiment: Antimicrobial activity against multidrug resistant Enterobacter aerogenes isolate 12 by broth dilution method in presence of 26.3 mg/L efflux pump inhibitor phenylalanine-arginine-beta-naphthylamide
Klebsiella pneumoniae [25] = experiment: Antimicrobial activity against multidrug resistant Klebsiella pneumoniae isolate 8 by broth dilution method in presence of 26.3 mg/L efflux pump inhibitor phenylalanine-arginine-beta-naphthylamide
Klebsiella pneumoniae [26] = experiment: Antimicrobial activity against multidrug resistant Klebsiella pneumoniae isolate 14 by broth dilution method in presence of 26.3 mg/L efflux pump inhibitor phenylalanine-arginine-beta-naphthylamide
Klebsiella aerogenes [27] = experiment: Antimicrobial activity against multidrug resistant Enterobacter aerogenes isolate 6 by broth dilution method
Klebsiella aerogenes [28] = experiment: Antimicrobial activity against multidrug resistant Enterobacter aerogenes isolate 16 by broth dilution method in presence of 26.3 mg/L efflux pump inhibitor phenylalanine-arginine-beta-naphthylamide
Klebsiella pneumoniae [29] = experiment: Antimicrobial activity against multidrug resistant Klebsiella pneumoniae isolate 13 by broth dilution method
Klebsiella aerogenes [30] = experiment: Antimicrobial activity against multidrug resistant Enterobacter aerogenes isolate 8 by broth dilution method in presence of 26.3 mg/L efflux pump inhibitor phenylalanine-arginine-beta-naphthylamide
Klebsiella pneumoniae [31] = experiment: Antimicrobial activity against multidrug resistant Klebsiella pneumoniae isolate 2 by broth dilution method in presence of 26.3 mg/L efflux pump inhibitor phenylalanine-arginine-beta-naphthylamide
Klebsiella aerogenes [32] = experiment: Antimicrobial activity against multidrug resistant Enterobacter aerogenes isolate 14 by broth dilution method
Klebsiella pneumoniae [33] = experiment: Antimicrobial activity against multidrug resistant Klebsiella pneumoniae isolate 3 by broth dilution method in presence of 26.3 mg/L efflux pump inhibitor phenylalanine-arginine-beta-naphthylamide
Klebsiella aerogenes [34] = experiment: Antimicrobial activity against multidrug resistant Enterobacter aerogenes isolate 5 by broth dilution method in presence of 26.3 mg/L efflux pump inhibitor phenylalanine-arginine-beta-naphthylamide
Klebsiella aerogenes [35] = experiment: Antimicrobial activity against multidrug resistant Enterobacter aerogenes isolate 10 by broth dilution method in presence of 26.3 mg/L efflux pump inhibitor phenylalanine-arginine-beta-naphthylamide
Klebsiella pneumoniae [36] = experiment: Antimicrobial activity against multidrug resistant Klebsiella pneumoniae isolate 4 by broth dilution method
Klebsiella pneumoniae [37] = experiment: Antimicrobial activity against multidrug resistant Klebsiella pneumoniae isolate 2 by broth dilution method
Klebsiella pneumoniae [38] = experiment: Antimicrobial activity against multidrug resistant Klebsiella pneumoniae isolate 4 by broth dilution method in presence of 26.3 mg/L efflux pump inhibitor phenylalanine-arginine-beta-naphthylamide
Klebsiella aerogenes [39] = experiment: Antimicrobial activity against multidrug resistant Enterobacter aerogenes isolate 3 by broth dilution method in presence of 26.3 mg/L efflux pump inhibitor phenylalanine-arginine-beta-naphthylamide
Klebsiella pneumoniae [40] = experiment: Antimicrobial activity against multidrug resistant Klebsiella pneumoniae isolate 15 by broth dilution method

Measured: MIC

CN(C)[C@@H]1C(O)=C(C(N)=O)C(=O)[C@@]2(O)C(O)=C3C(=O)c4c(O)cccc4[C@@](C)(O)[C@H]3C[C@@H]12 [TETRACYCLINE]
16 µg/mL: Klebsiella aerogenes [18] | Klebsiella aerogenes [24]
256 µg/mL: Klebsiella pneumoniae [20] | Klebsiella pneumoniae [26] | Klebsiella pneumoniae [33] | Klebsiella pneumoniae [38]
128 µg/mL: Klebsiella pneumoniae [2] | Klebsiella aerogenes [9] | Klebsiella aerogenes [13] | Klebsiella aerogenes [22] | Klebsiella aerogenes [23] | Klebsiella pneumoniae [25]
2 µg/mL: Klebsiella pneumoniae [3] | Klebsiella pneumoniae [4] | Klebsiella aerogenes [28] | Klebsiella aerogenes [30] | Klebsiella pneumoniae [31] | Klebsiella pneumoniae [36] | Klebsiella pneumoniae [40]
4 µg/mL: Klebsiella aerogenes [8] | Klebsiella pneumoniae [12] | Klebsiella pneumoniae [19] | Klebsiella aerogenes [27] | Klebsiella pneumoniae [29]
8 µg/mL: Klebsiella aerogenes [6] | Klebsiella aerogenes [10] | Klebsiella aerogenes [11] | Klebsiella aerogenes [35] | Klebsiella aerogenes [39]
32 µg/mL: Klebsiella aerogenes [34]
1 µg/mL: Klebsiella aerogenes [21]
0.5 µg/mL: Klebsiella aerogenes [1]
64 µg/mL: all other assays above

O=C(N[C@H](CO)[C@H](O)c1ccc([N+](=O)[O-])cc1)C(Cl)Cl [CHLORAMPHENICOL]
8 µg/mL: Klebsiella pneumoniae [40]
4 µg/mL: Klebsiella pneumoniae [12] | Klebsiella pneumoniae [19] | Klebsiella pneumoniae [33] | Klebsiella pneumoniae [36]
256 µg/mL: Klebsiella aerogenes [15] | Klebsiella aerogenes [27] | Klebsiella pneumoniae [37]
2 µg/mL: Klebsiella pneumoniae [2] | Klebsiella pneumoniae [20] | Klebsiella aerogenes [21] | Klebsiella pneumoniae [25] | Klebsiella pneumoniae [26] | Klebsiella pneumoniae [38]
1020 µg/mL: Klebsiella aerogenes [5] | Klebsiella aerogenes [7] | Klebsiella aerogenes [9] | Klebsiella aerogenes [13] | Klebsiella aerogenes [14] | Klebsiella aerogenes [22]
128 µg/mL: Klebsiella aerogenes [8] | Klebsiella aerogenes [24] | Klebsiella pneumoniae [29] | Klebsiella aerogenes [34] | Klebsiella aerogenes [35] | Klebsiella aerogenes [39]
1 µg/mL: Klebsiella aerogenes [1]
> 1020 µg/mL: Klebsiella aerogenes [23]
512 µg/mL: Klebsiella aerogenes [16] | Klebsiella aerogenes [17] | Klebsiella aerogenes [32]
not listed: Klebsiella pneumoniae [4]
64 µg/mL: all other assays above
